These results are taken from a melting point compilation (Tetko et al.; mined from patent text by program, amines drawn as free bases though some values may be those of a salt).

Bounds are passed on as bounds.

The term melting point denotes the temperature, or range, at which the solid turns liquid. `Cc1ccc(OCC(=O)O)c(C(=O)NCc2cccc([N+](=O)[O-])c2)c1`: the melting point fell in the range of 193 to 194 °C.
Take `CSC(=NC(=O)c1cccc(Br)c1)NC(=O)c1ccccc1`: the melting point is 145 to 146 °C.
Molecule `CC1COCc2nc3c(N)nc4cc(C=CC(=O)N5CCOCC5)ccc4c3n21` (stereo not given) displayed a melting point of more than 250 °C.
In turn, `C#CC1(O)C(C)CC2C3CCC4=CC(=O)CCC4(C)C3=CCC21C` (stereo not given) showed a melting point of 213 to 218 °C.
In the case of `COc1cc(CC(=O)NCCCc2ccc(C)c(C)c2)ccc1OCCNC(=O)c1ccccc1OC(C)=O`, the melting point was in the range of 135 to 137 °C.
`CS(=O)(=O)c1n[nH]c(NCCCCOc2cccc(CN3CCCCC3)c2)n1` gave a melting point of 79 to 81 °C.
In the case of `CC(C)(C)C(O)CN1C(=O)C(N)C(=O)N(c2ccccc2F)c2ccccc21` (stereo not given), the melting point fell in the range of 104 to 105 °C.
`C[C@]1(CN2CCCc3ccccc32)Cn2cc([N+](=O)[O-])nc2O1` came in with a melting point of 168 to 172 °C.
`COc1cccc(CNC(=O)c2nc3ccccc3c(=O)[nH]2)c1`: the melting point lay within 186 to 189 °C.
In turn, `CCOC(=O)C1(C)C(=O)Nc2cc(NC(=O)c3ccncc3)c([N+](=O)[O-])cc21` (stereo not given) came in with a melting point of 217 to 219 °C.
Molecule `CC(=O)C1CCC2C3CC(C)C4CC(O)CCC4(C)C3C(O)CC12C` (stereo not given) yielded a melting point of 211 to 213 °C.
The figure for `NC(=O)CNC(=O)c1cc(-c2cccc3cc(Cc4cc(F)cc(Cl)c4)sc23)ccc1F` is 129 to 130 °C.
The figure for `CNC(=O)c1ccc(-c2coc3ccc(-c4nnc(C)o4)cc23)c(Cl)c1` is 250 to 251 °C; for `CC1NC(=O)N(C)N=C1c1ccccc1` (stereo not given) it is 99.5 to 101 °C.
The figure for `CCCSc1ccc(C(=O)C(=O)OCC)[nH]1` is 34 °C.
Regarding `COc1ccc2c(c1)C(=O)C(C)(C)C(=O)N2`, the melting point is 169 to 170 °C.
In turn, `CCC(Oc1cc(Cl)cc(Cl)c1Cl)C(=O)O` (stereo not given) came in with a melting point of 106 to 114 °C.
As for `CC(C)(C)OC(=O)N1CCC(c2ccc(N3C[C@H](CN)OC3=O)cc2F)CC1`, the melting point was 136 to 137 °C.
`Cc1[nH]c(=O)[nH]c1C(=O)C=Cc1ccccc1`: the melting point is 299 °C.
Molecule `COC(=O)c1cc(S(C)(=O)=O)c(Cl)cc1C` returned a melting point of 151 °C.
For the molecule `O=Cc1cn(C(c2ccccc2)(c2ccccc2)c2ccccc2)cn1`, the melting point fell in the range of 186 to 194 °C.
Regarding `O=C1CCCc2nc3ccccc3c(NCc3ccccc3C(F)(F)F)c21`, the melting point stood at 167 °C.
In turn, `CCOCCN(C(=O)N(CCCl)N=O)C1(O)C(CO)OC(OC2CCCCC2)C1O` (stereo not given) yielded a melting point of 62 to 64 °C.
For `CCCCNC(=O)OC1c2ccccc2C(=O)N1c1ccc2ccc(Cl)nc2n1` (stereo not given), the melting point came to 152 °C.
The molecule `CCCCCCCN(CCCCCSc1nc(-c2ccccc2)c(-c2ccccc2)[nH]1)c1ncnc2nc[nH]c12` came in with a melting point of 58 to 60 °C.
The figure for `Cc1nc(-c2ccccc2)sc1C(=O)NCc1ccc(OC(C)(C)C(=O)O)cc1` is 179 °C.
Molecule `CC(C)N1C(=O)c2ccccc2N(S(C)(=O)=O)S1(=O)=O` returned a melting point of 156 to 158 °C.
For `CC[C@H](C(=O)O)[C@H](N)C(=O)O`, the melting point lay within 239 to 241 °C.
Consider `COc1cc(C(=O)CBr)ccc1OC(C)=O`, for which the melting point was found to be 82 °C.
`CS(=O)c1ncc2ccc(=O)n(C3CCCC3)c2n1` (stereo not given) showed a melting point of 170 to 173 °C.
Regarding `On1c(C(F)(F)F)nc2ncc(Cl)cc21`, the melting point lay in the range of 264 to 266 °C.
`COc1ccc(Cc2ccc(C(=O)N(C3CCCC3)C3CCCC3)cc2)cc1OC` yielded a melting point of 138 to 142 °C.
As for `O=C(O)CCS(=O)CCC(=O)O`, the melting point is 114 °C.
The molecule `CCCCNC(=O)NS(=O)(=O)c1ccc(CCNC(=O)N2CCC(C)CC2=O)cc1` (stereo not given) displayed a melting point of 159 to 161 °C.
`COc1c(OC(C)=O)ccc2cc[nH]c12` displayed a melting point of 241 to 244 °C.
The figure for `NC(=O)C1CCC(=O)N1CC#CCN1CCCCC1` (stereo not given) is 143 to 145 °C.
`CS(=O)(=O)Nc1ccc(CCOc2ccc(C=C3SC(=O)NC3=O)cc2)cc1` had a melting point of 130 °C.
Molecule `CCOC(=O)c1cn2c3c(c(F)c(F)cc3c1=O)OCC2COC` (stereo not given) had a melting point of 238 °C.
On to `CC(=O)Oc1ccc2c3c(ccc2c1)C1CC=CC1(C)CC3` (stereo not given), for which the melting point lay within 95 to 96 °C.
For `COc1ccc(COc2c(OC)ccc3c2CC(C(=O)O)N(C(=O)C(c2ccccc2)c2ccccc2)C3)cc1C` (racemic), the melting point was 140 to 142 °C.
In turn, `CC(C)(C)OC(=O)NCCNC(=O)c1ncccc1Br` yielded a melting point of 125 to 130 °C.
Molecule `O=CC(=C(c1ccc(F)cc1)c1ccc(F)cc1)n1cnnn1` gave a melting point of 161 °C.
In turn, `NC(=O)C1CN(c2c(F)cc3c(=O)c(C(=O)O)cn(C4CC4)c3c2F)C1` displayed a melting point of 295 to 298 °C.
Turning to `CSc1ccc(C=C2CCc3cc(OCCn4ccnc4)ccc3C2=O)s1`, the melting point lay within 102 to 104 °C.
`CC(C)(C)OC(=O)NCCCCCCCBr` registered a melting point of 48 to 49 °C.
Turning to `COc1cc2c(OC)c3c(c(-c4ccc5c(c4)OCO5)c2cc1OC)C(=O)OC3`, the melting point was 256 to 258 °C.
`O=C(O)[C@H](Cc1ccccc1)NS(=O)(=O)c1ccc2c(c1)Sc1ccccc1O2` had a melting point of 120 to 130 °C.
`CC(=O)OC(CCCN1CCN(c2ncc(F)cn2)CC1)c1ccc(F)cc1` (stereo not given) had a melting point of 76 to 77 °C.
The molecule `COc1cc(NCCCCCCN2CCN(c3ccc(Cl)c(Cl)c3)CC2)c2nccc(C)c2c1` gave a melting point of 92 to 94 °C.
In turn, `COC(=O)CN1C(=O)C2=C(c3ccc(Cl)cc3C(c3ccccc3Cl)=NC2)C1C` (stereo not given) showed a melting point of 221 to 223 °C.
The figure for `COc1ccc(C2Cc3cc(OC)c(OC)c(OC)c3C2=O)cc1` (stereo not given) is 104 to 106 °C; for `CC1=NN(C)C(=O)C1C(=O)Nc1ccccc1` (stereo not given) it is 231 to 233 °C; for `O=S1(=O)CCC(c2ccc(N3CCN(CC(O)(Cn4cncn4)c4ccc(F)cc4F)CC3)cc2)CN1` (stereo not given) it is 165 to 167 °C.
The figure for `COc1ccc2c(c1N)C(CCNC(C)=O)CC2` (stereo not given) is 94 to 97 °C.
Turning to `CC1(OC(=O)C#CC2C(C(=O)OC(C#N)c3cccc(Oc4ccccc4)c3)C2(C)C)CCC1` (stereo not given), the melting point was determined as 76 °C.
The figure for `CSc1nc(Cc2ccccc2[N+](=O)[O-])n[nH]1` is 120 to 132 °C.
In turn, `COc1cc(NC(=O)CCCCCBr)c2nccc(C)c2c1` gave a melting point of 111 to 113 °C.
The molecule `Cn1nc(C#Cc2ccccc2)ccc1=O` came in with a melting point of 118 to 120 °C.
Consider `C[C@H]1C=CC(Sc2ccccc2)=CC[C@H]1O`, for which the melting point was 54 to 56 °C.
The figure for `COc1ccc(OC)c2c1CC(C(=O)O)CC2=O` (stereo not given) is 199 to 201 °C.
The figure for `COc1cc(C(=O)CS(C)=O)c(N)c(OC)c1OC` (stereo not given) is 102 to 104 °C; for `CCn1cc(C(=O)O)c(=O)c2cc(F)c(N3CC4CC3CN4Cc3ccccc3)c(F)c21` (stereo not given) it is 195 to 198 °C.
The figure for `COc1ccc(-c2nc(-c3ccc(Cl)cc3)ncc2C(=O)N2CCOCC2)cc1OC` is 168 °C; for `O=CNCN1CCCCCC1=O` it is 48 °C.
Take `O=C(N[C@H](Cc1ccc(C(F)(F)F)cc1)[C@@H](O)c1cccc(Cl)n1)c1ccc(F)c2ccccc12` (racemic): the melting point is 225 to 226 °C.
In turn, `FC(F)(F)c1cccc(-c2nccc3nncn23)c1` showed a melting point of 145 to 146 °C.
Take `Cc1cccc2c1nc(-c1cccnc1)n2Cc1c(F)cccc1F`: the melting point lay in the range of 186 to 188 °C.
In the case of `CC(=O)NC[C@H]1CN(c2ccc(N3CCC(n4nnc(N5CCN(Cc6ccccc6)CC5)n4)CC3)c(F)c2)C(=O)O1`, the melting point was in the range of 202 to 204 °C.
Turning to `O=c1c(-c2cccc(C(F)(F)F)c2)c[nH]n1-c1cccc(Cl)c1`, the melting point is 182 to 184 °C.
`CN1CCN(C2=Nc3ccccc3N(C=O)c3ccncc32)CC1` displayed a melting point of 196 °C.
The figure for `CCCCCCCCCCCC(=O)c1ccc(-c2ccc(OC)c(F)c2)cc1` is 124 to 125 °C.
The molecule `Cc1ccc(C(Br)C(Br)C(=O)c2ccccc2)cc1` (stereo not given) showed a melting point of 84 °C.
`CCOC(=O)c1c(C(C)C)csc1N/C=C(\C#N)C(=O)OC(C)(C)C`: the melting point was 93 to 94 °C.
Consider `CC(=O)n1ccc2c(I)ncnc21`, for which the melting point lay within 123 to 124 °C.
`FC(F)(F)c1ccc(CCc2cc(OCc3ccccc3)c(OCc3ccccc3)nn2)cc1Cl` came in with a melting point of 169 to 170 °C.
For the molecule `CCOC(=O)[C@H](Cc1ccc(O)cc1)NC(=O)c1c(Cl)cccc1Cl`, the melting point fell in the range of 141 to 142 °C.
Take `O=C1N(Cc2ccccn2)c2ccccc2C12COc1cc3c(cc12)OCCCO3` (stereo not given): the melting point lay within 122 to 123 °C.
As for `Cn1cnc(COc2nc3c(-c4ccccc4F)nncn3c2-c2ccccc2)n1`, the melting point amounted to 186 °C.
The figure for `O=C1c2ccccc2CN1[C@@H]1c2cc([N+](=O)[O-])ccc2OC(CF)(CF)[C@H]1O` (relative stereo) is 285 to 288 °C; for `CCOC(=O)c1nc2scc(CN(C)Cc3ccccc3)c2c(=O)[nH]1` it is 129 °C; for `CCCCn1c(COCC)nc2c(N)nc3ccc(Br)cc3c21` it is 182 to 183 °C.
Take `Cc1ccc(-c2nc3ccc(C(C)(C)CNC=O)cc3[nH]2)cc1`: the melting point was 193 to 195 °C.
For the molecule `Nc1ccc(Sc2ccccc2)cc1F`, the melting point was 48 to 49 °C.
Take `COc1ccc(C(=O)Nc2cc(-c3c(-c4cccc(C)c4)nc4ccc(N(C)C)nn34)ccn2)cc1`: the melting point was 193 to 194 °C.
As to `CCOC(=O)c1ccc(Oc2cccc3[nH]c4cnc(C(=O)OC(C)C)c(COC)c4c23)o1`, the melting point lay within 191 to 192 °C.
In turn, `COC(=O)C1N=C(c2ccccc2)c2cc(Cl)ccc2NC1=O` (stereo not given) showed a melting point of 222 °C.
In turn, `COC(=O)c1ccc2ncc(C(=O)NCc3ccc(Cl)cc3)c(O)c2c1` showed a melting point of 290 to 292 °C.
`Cc1cn(C)c2cc(C(C)C)c(Oc3cnc(N)nc3N)cc12` showed a melting point of 185 °C.
`C(=C\c1ccc2c(c1)COC(N[C@@H]1CCc3ccccc31)=N2)/c1cccnc1` had a melting point of 132 °C.
For `Cc1c(Cl)nc(Cl)nc1Cl`, the melting point is 67 to 68 °C.
